Tests used:
[1] = tested on: CT26 murine colorectal carcinoma tumor; experiment: Study 4: CT26 subcutaneous tumor model, anti-tumor efficacy; format: in vivo, female Balb/c mice; settings: for GRI (%) Day 11: vs vehicle
Procedure: Study 4: CT26 is a murine colorectal carcinoma cell line. Eight-week-old female Balb/c mice (Jackson Labs, Maine) were inoculated subcutaneously with 0.2×10^6 CT26 tumor cells and monitored for tumor growth. Once the tumors reached an average of 100-125 mm^3, animals were irradiated with either mock irradiation or 8 Gy of focal beam irradiation (Study Day 0). Animals were then dosed intravenously with either vehicle (PBS) or 0.25 mg/kg of Compound No. 14 on a QW×3 schedule beginning on Study Day 1. Anti-mPD-1 antibody (clone RMP1-14, BioXCell) treatment was administered intraperitoneally twice weekly starting on Study Day 1 with a concentration of 10 mg/kg for 3 weeks. Animals were monitored for tumor volumes and body weight changes twice weekly throughout the study once they reached their humane endpoint. GRI was calculated on the last day with animals remaining in the vehicle group (Study Day 11).
Study 4: A 5 mg/mL stock solution of Compound No. 14 was formulated in PBS at the final concentration of 0.0667 mg/mL and administered intravenously (IV). Final doses received were 0.25 mg/kg. […] Compound No. 14 was administered on a QW schedule for 3 doses in single agent treatment group and in combination treatment groups beginning on Day 1. Dose formulation of Compound No. 14 was prepared once and utilized for dosing on each treatment day.
Anti-mPD-1 or isotype control was administered concurrent with Compound No. 14 or vehicle control on a BIW schedule for 3 doses in single agent treatment groups and in combination treatment groups.
(§1) Studies 4 and 5: Radiation treatment for Studies 4 and 5 were performed using focal beam radiation with volumentric image guidance from computer tomography scans on the SmART (Small animal image-guided radiotherapy) platform (Precision XRay Inc., North Branford, CT). Animals received 4.52 Gy/min of radiation and approximately 1.8 min was needed to reach 8 Gy dose delivery (Study 4) or […] was needed to reach 16 Gy dose delivery (Study 5). Animals were anesthetized during imaging and radiation treatment using 1-2% isoflurane.
(§2) Growth Rate Inhibition: The differences in the tumor growth trends over time between pairs of treatment groups were assessed by fitting each animal's data to a simple exponential growth model and comparing the mean growth rates of the two groups, as described in more detail below. The difference in the growth rates was summarized by the GRI, which is the reduction in growth rate experienced by the treatment group relative to that of the reference group, expressed as a fraction of the vehicle growth rate.
(§3) μT and μC are the mean tumor growth rates for the treatment and reference groups, respectively. μV is the mean tumor growth rate for the vehicle group, which in most cases is the same as the reference group.
(§4) A GRI greater than 100% is interpreted as tumor regression when the vehicle group is the same as the reference group. A negative value of the GRI means that the tumors in the treatment group grew faster than the tumors in the reference group. Statistical significance was determined using an unpaired t-test.
(§5) Tumor Growth Rate Computation: Low tumor volumes can cause problems with the data analysis, so all measurements below 25 cubic mm (including 0 values) were excluded from the analysis. After this exclusion step, the tumor volume was assumed to follow an exponential growth model. More specifically, for a given animal and treatment group,
(§6) where Vi is the tumor volume at the i^th time point. Here, a is the initial log volume, b is the tumor growth rate, and t1 is the measurement time in days. εi is the residual error term, which was assumed to be uncorrelated and drawn from a normal distribution.
This model was fit separately for each animal within each treatment group. If an animal was sacrificed or died early, but at least two unique time points were measured (including baseline), then the data up to that point was used to estimate the growth rate. […]

[2] = tested on: B16F10 ova melanoma tumor; experiment: Study 5: B16F10-Ova subcutaneous tumor model, anti-tumor efficacy; format: in vivo, female C57Bl/6 mice; settings: for GRI (%) (Day 10): vs vehicle
Procedure: Study 5: B16F10-Ova is a cell line derived from B16F10 melanoma that expresses chicken ovalbumin. Seven-week-old female C57Bl/6 mice (Jackson Labs, Maine) were inoculated subcutaneously with 0.04×10^6 B16F10 ova tumor cells and monitored for tumor growth. Once the tumors reached an average of 100-250 mm^3, animals were irradiated with either mock irradiation or 16 Gy of focal beam irradiation (Study Day 0). Animals were then dosed intravenously with either vehicle (PBS) or 0.25 mg/kg of Compound No. 14 on a Q3Dx3 scheduled beginning on Study Day 1. Animals were monitored for tumor volumes and body weight changes twice weekly throughout the study once they reached their humane endpoint. GRI was calculated on the last day with animals remaining in the vehicle group (Study Day 10).
Study 5: A 5 mg/mL stock solution of Compound No. 14 was formulated in PBS at the final concentration of 0.0667 mg/mL and administered intravenously (IV). Final doses received were 0.25 mg/kg. […] Compound No. 14 was administered on a Q3D schedule for 3 doses in single agent treatment group and in combination treatment groups beginning on Day 1. Dose formulation of Compound No. 14 was prepared once and utilized for dosing on each treatment day.
as §1, §2, §3, §4, §5, §6
This model was fit separately for each animal within each treatment group. If an animal was sacrificed or died early, but at least two unique time points were measured (including baseline), then the data up to that point was used to estimate the growth rate. If the animal had measurements at less than two time points, then the animal was automatically excluded from the analysis.
In rare cases, the estimated growth rate for one or more animals might be very different from the other animals within the same group. […]

[3] = TG02 Compound No. 14 0.25 mg/kg QWx3 IV, single agent
[4] = TG05 Compound No.14 0.25 mg/kg QWx3 IV + Radiation 8 Gy, through Day 11
[5] = TG02 Compound No.14 0.25 mg/kg Q3Dx3 IV, single agent
[6] = TG04 Compound No.14 0.25 mg/kg Q3Dx3 IV + radiation 16 Gy, through Day 10

Nc1ncnc2c1ncn2[C@@H]1O[C@@H]2COP(=O)(S)O[C@@H]3[C@H](O)[C@@H](COP(=O)(S)O[C@H]2[C@H]1F)O[C@H]3n1cc(F)c2c(=O)[nH]cnc21 (stereo partly drawn) [Compound No. 14]
Number of Animals Removed [1, 3]: 0 | GRI (%) Day 11 [1, 3]: 13% | Number of Animals Removed ([1]; TG05 Compound No. 14 0.25 mg/kg QWx3 IV + Radiation 8 Gy): 0 | GRI (%) Day 11 ([1]; TG05 Compound No. 14 0.25 mg/kg QWx3 IV + Radiation 8 Gy (Day 0)): 88% | Combination Assessment [1, 4]: Additive | Synergy Score % [1, 4]: −12% | Number of Animals Removed [2, 5]: 4 | GRI (%) (Day 10) [2, 5]: 11% | Number of Animals Removed ([2]; TG04 Compound No.14 0.25 mg/kg Q3Dx3 IV + radiation 16 Gy): 0 | GRI (%) (Day 10) ([2]; TG04 Compound No.14 0.25 mg/kg Q3Dx3 IV + radiation 16 Gy (Day 0)): 67% | Combination Assessment [2, 6]: Additive | Synergy Score % [2, 6]: −21%
